Reference: US20220259193A1, “KCNT1 INHIBITORS AND METHODS OF USE” (Praxis Precision Medicines, Inc., priority 2019, published 2022)

molecular target: T1, KCNT1 (KNa1.1, Slack) (Homo sapiens, UniProt Q5JUK3); experiment: KCNT1 patch clamp assay (SyncroPatch 384PE automated patch clamp); format: cell-based; conditions: tetracycline inducible HEK-TREX cell line; perforated patch; step from −80 mV to 0 mV; room temperature; read-out: KCNT1-WT IC50
T1 construct: expressed in transfected cells; host or cells: HEK-TREX (tetracycline-inducible HEK cell line)
T1 sequence (Q5JUK3 1-1230): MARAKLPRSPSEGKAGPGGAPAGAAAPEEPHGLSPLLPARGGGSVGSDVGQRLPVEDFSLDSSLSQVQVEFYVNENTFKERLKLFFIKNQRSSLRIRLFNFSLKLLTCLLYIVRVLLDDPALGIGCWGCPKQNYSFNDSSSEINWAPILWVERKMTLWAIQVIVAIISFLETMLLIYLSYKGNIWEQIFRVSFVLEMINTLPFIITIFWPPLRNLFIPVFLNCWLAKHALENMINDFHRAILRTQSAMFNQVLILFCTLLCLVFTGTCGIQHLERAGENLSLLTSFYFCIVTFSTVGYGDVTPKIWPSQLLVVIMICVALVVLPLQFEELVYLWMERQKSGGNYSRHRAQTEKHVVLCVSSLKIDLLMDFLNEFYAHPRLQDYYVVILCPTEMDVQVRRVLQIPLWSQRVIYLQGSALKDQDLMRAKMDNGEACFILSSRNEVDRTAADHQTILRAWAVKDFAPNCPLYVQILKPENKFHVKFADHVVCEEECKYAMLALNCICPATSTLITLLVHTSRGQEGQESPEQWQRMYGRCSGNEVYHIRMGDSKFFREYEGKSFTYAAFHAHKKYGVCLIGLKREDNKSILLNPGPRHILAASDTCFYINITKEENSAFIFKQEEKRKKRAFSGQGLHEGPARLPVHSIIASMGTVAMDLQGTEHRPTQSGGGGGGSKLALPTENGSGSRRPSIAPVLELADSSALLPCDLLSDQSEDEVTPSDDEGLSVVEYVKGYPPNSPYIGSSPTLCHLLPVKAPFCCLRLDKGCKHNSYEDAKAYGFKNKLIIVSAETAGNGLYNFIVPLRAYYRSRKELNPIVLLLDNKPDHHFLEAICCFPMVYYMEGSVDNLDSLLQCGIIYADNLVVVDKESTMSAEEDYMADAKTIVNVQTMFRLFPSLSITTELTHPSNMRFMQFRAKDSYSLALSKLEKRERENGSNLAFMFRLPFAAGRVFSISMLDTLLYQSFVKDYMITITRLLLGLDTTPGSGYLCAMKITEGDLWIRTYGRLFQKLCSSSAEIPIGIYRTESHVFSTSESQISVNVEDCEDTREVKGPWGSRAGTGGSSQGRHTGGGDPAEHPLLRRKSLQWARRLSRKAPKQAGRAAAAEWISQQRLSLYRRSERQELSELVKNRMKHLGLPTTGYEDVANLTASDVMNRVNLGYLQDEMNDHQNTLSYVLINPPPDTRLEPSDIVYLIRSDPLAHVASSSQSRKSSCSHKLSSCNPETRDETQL
Method in brief: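 Tetracycline-inducible HEK-TREX cells; perforated-patch (10 μM escin) population recordings at room temperature, holding −80 mV with 100 ms step to 0 mV.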

| IC50 [nM] | SMILES |
| --- | --- |
| ≤ 1000 | CC[C@@H](NC(=O)c1cc(C(F)(F)F)nn1C)c1nc(-c2ccnc(C3CC3)c2)no1 [Compound 266, N-[(1R)-1-[3-(2-cyclopropyl-4-pyridyl)-1,2,4-oxadiazol-5-yl]propyl]-2-methyl-5-(trifluoromethyl)pyrazole-3-carboxamide] |
| 1000 to 20000 | C[C@H](NC(=O)c1cc(C(F)(F)F)nn1C)c1nc(-c2ccnc(C#N)c2)no1 [Compound 267, (S)—N-(1-(3-(2-cyanopyridin-4-yl)-1,2,4-oxadiazol-5-yl)ethyl)-1-methyl-3-(trifluoromethyl)-1H-pyrazole-5-carboxamide] |
| ≤ 1000 | CCc1cc(-c2noc([C@H](C)NC(=O)c3cc(C(F)(F)F)nn3C)n2)ccn1 [Compound 268, (S)—N-(1-(3-(2-ethylpyridin-4-yl)-1,2,4-oxadiazol-5-yl)ethyl)-1-methyl-3-(trifluoromethyl)-1H-pyrazole-5-carboxamide] |
| ≤ 1000 | CC(C)c1cc(-c2noc([C@H](C)NC(=O)c3cc(C(F)(F)F)nn3C)n2)ccn1 [Compound 269, (S)—N-(1-(3-(2-isopropylpyridin-4-yl)-1,2,4-oxadiazol-5-yl)ethyl)-1-methyl-3-(trifluoromethyl)-1H-pyrazole-5-carboxamide] |
| ≤ 1000 | C[C@H](NC(=O)c1ccnn1C1CCCC1)c1nc(-c2ccnc(C3CC3)c2)no1 [Compound 270] |
| 1000 to 20000 | C[C@H](NC(=O)OC(C)(C)C)c1nc(-c2ccnc(C3(C)CC3)c2)no1 [Compound 272, tert-butyl (S)-(1-(3-(2-(1-methylcyclopropyl)pyridin-4-yl)-1,2,4-oxadiazol-5-yl)ethyl)carbamate] |
| ≤ 1000 | C[C@H](NC(=O)OCc1ccccc1)c1nc(-c2ccnc(C3CC3)c2)no1 [Compound 273] |
| ≤ 1000 | CCOC(=O)N[C@@H](C)c1nc(-c2ccnc(C3CC3)c2)no1 [Compound 274] |
| ≤ 1000 | CC(C)COC(=O)N[C@@H](C)c1nc(-c2ccnc(C3CC3)c2)no1 [Compound 275] |
| ≤ 1000 | C[C@H](NC(=O)OC1CCCC1)c1nc(-c2ccnc(C3CC3)c2)no1 [Compound 276] |
| 1000 to 20000 | CC(C)OC(=O)N[C@@H](C)c1nc(-c2ccnc(C3CC3)c2)no1 [Compound 277] |
| ≤ 1000 | C[C@H](NC(=O)c1ccnn1Cc1ccccc1)c1nc(-c2ccnc(C3CC3)c2)no1 [Compound 280, (S)-1-benzyl-N-(1-(3-(2-cyclopropylpyridin-4-yl)-1,2,4-oxadiazol-5-yl)ethyl)-1H-pyrazole-5-carboxamide] |
| 1000 to 20000 | C[C@H](NC(=O)OC(C)(C)C)c1nc(-c2cccc(F)c2)no1 [Compound 281, tert-butyl N-[(1S)-1-[3-(3-fluorophenyl)-1,2,4-oxadiazol-5-yl]ethyl]carbamate] |
| 1000 to 20000 | C[C@@H](NC(=O)OC(C)(C)C)c1nc(-c2cccc(F)c2)no1 [Compound 282, tert-butyl (R)-(1-(3-(3-fluorophenyl)-1,2,4-oxadiazol-5-yl)ethyl)carbamate] |
| 1000 to 20000 | COc1cccc(-c2noc([C@H](C)NC(=O)OC(C)(C)C)n2)c1 [Compound 283, tert-butyl (S)-(1-(3-(3-methoxyphenyl)-1,2,4-oxadiazol-5-yl)ethyl)carbamate] |
| 1000 to 20000 | CC[C@H](NC(=O)OC(C)(C)C)c1nc(-c2ccnc(C)c2)no1 [Compound 284, tert-butyl (S)-(1-(3-(2-methylpyridin-4-yl)-1,2,4-oxadiazol-5-yl)propyl)carbamate] |
| ≥ 20000 | Cc1ccnc(-c2noc([C@H](C)NC(=O)OC(C)(C)C)n2)c1 [Compound 285, tert-butyl (S)-(1-(3-(4-methylpyridin-2-yl)-1,2,4-oxadiazol-5-yl)ethyl)carbamate] |
| ≤ 1000 | CC(C)Oc1cc(-c2noc([C@H](C)NC(=O)OC(C)(C)C)n2)ccn1 [Compound 286, tert-butyl (S)-(1-(3-(2-isopropoxypyridin-4-yl)-1,2,4-oxadiazol-5-yl)ethyl)carbamate] |
| ≤ 1000 | COc1cc(-c2noc([C@H](C)NC(=O)OC(C)(C)C)n2)cc(C)n1 [Compound 287, tert-butyl (S)-(1-(3-(2-methoxy-6-methylpyridin-4-yl)-1,2,4-oxadiazol-5-yl)ethyl)carbamate] |
| ≤ 1000 | C[C@H](NC(=O)OC(C)(C)C)c1nc(-c2ccnc(C3CC3)c2)no1 [Compound 288, tert-butyl (S)-(1-(3-(2-cyclopropylpyridin-4-yl)-1,2,4-oxadiazol-5-yl)ethyl)carbamate] |
| ≥ 20000 | COCc1cc(-c2noc([C@H](C)NC(=O)OC(C)(C)C)n2)ccn1 [Compound 289, tert-butyl (S)-(1-(3-(2-(methoxymethyl)pyridin-4-yl)-1,2,4-oxadiazol-5-yl)ethyl)carbamate] |
| ≤ 1000 | CCOc1cc(-c2noc([C@H](C)NC(=O)OC(C)(C)C)n2)ccn1 [Compound 290, tert-butyl (S)-(1-(3-(2-ethoxypyridin-4-yl)-1,2,4-oxadiazol-5-yl)ethyl)carbamate] |
| 1000 to 20000 | C[C@H](NC(=O)OC(C)(C)C)c1nc(-c2ccnc(C(F)F)c2)no1 [Compound 291, tert-butyl (S)-(1-(3-(2-(difluoromethyl)pyridin-4-yl)-1,2,4-oxadiazol-5-yl)ethyl)carbamate] |
| 1000 to 20000 | C[C@H](NC(=O)OC(C)(C)C)c1nc(-c2ccnc(OC3CC3)c2)no1 [Compound 292, tert-butyl (S)-(1-(3-(2-cyclopropoxypyridin-4-yl)-1,2,4-oxadiazol-5-yl)ethyl)carbamate] |
| 1000 to 20000 | C[C@H](NC(=O)OC(C)(C)C)c1nc(-c2ccnc(OCC(F)F)c2)no1 [Compound 294, tert-butyl (S)-(1-(3-(2-(2,2-difluoroethoxy)pyridin-4-yl)-1,2,4-oxadiazol-5-yl)ethyl)carbamate] |
| ≤ 1000 | C[C@H](NC(=O)OC(C)(C)C)c1nc(-c2ccnc(C(F)(F)F)c2)no1 [Compound 295, tert-butyl (S)-(1-(3-(2-(trifluoromethyl)pyridin-4-yl)-1,2,4-oxadiazol-5-yl)ethyl)carbamate] |
| 1000 to 20000 | C[C@@H](NC(=O)OC(C)(C)C)c1nc(-c2ccnc(C(F)(F)F)c2)no1 [Compound 296, tert-butyl (R)-(1-(3-(2-(trifluoromethyl)pyridin-4-yl)-1,2,4-oxadiazol-5-yl)ethyl)carbamate] |
| ≥ 20000 | CC[C@H](NC(=O)c1cc(C)n(-c2cccnc2)n1)c1nc(-c2ccnc(C)c2)no1 [Compound 299, (S)-5-methyl-N-(1-(3-(2-methylpyridin-4-yl)-1,2,4-oxadiazol-5-yl)propyl)-1-(pyridin-3-yl)-1H-pyrazole-3-carboxamide] |
| ≤ 1000 | Cn1nc(C(F)(F)F)cc1C(=O)NCc1nc(-c2ccnc(C(F)(F)F)c2)no1 [Compound 300, 2-methyl-5-(trifluoromethyl)-N-[[3-[2-(trifluoromethyl)-4-pyridyl]-1,2,4-oxadiazol-5-yl]methyl]pyrazole-3-carboxamide] |
| ≤ 1000 | Cn1nc(C(F)(F)F)cc1C(=O)NCc1nc(-c2ccnc(C3CC3)c2)no1 [Compound 301, N-[[3-(2-cyclopropyl-4-pyridyl)-1,2,4-oxadiazol-5-yl]methyl]-2-methyl-5-(trifluoromethyl)pyrazole-3-carboxamide] |

| SMILES | IC50 [nM] |
| --- | --- |
| C[C@H](NC(=O)OC(C)(C)C)c1nc(-c2ccnc(OC3CC(F)(F)C3)c2)no1 [Compound 293, tert-butyl (S)-(1-(3-(2-(3,3-difluorocyclobutoxy)pyridin-4-yl)-1,2,4-oxadiazol-5-yl)ethyl)carbamate] | ≥ 20000 |
